# From patent US10144742B2 (Millennium Pharmaceuticals, Inc., priority 2014, dated 2018)
# Like-named read-outs stand apart in the source and are kept apart here.
# Molecular target: hNAMPT protein (Homo sapiens (Human), UniProt P43490)
# Test: NAMPT enzyme assay (TR-FRET/HTRF, BodiPY ligand, anti 6His-Tb)
# Assay type: binding
# Conditions: for IC50: NAMPT IC50 range class, read-out: IC50; for inhibition at 1 µM: read-out: Percent Inhibition
# Description: As discussed above, the invention provides compounds that are useful as inhibitors of the enzyme NAMPT. The NAMPT inhibition of a compound of the invention can be measured using a variety of methods known in the art. For example, the ability of a compound of the invention to inhibit NAMPT enzyme activity can be measured using a homogeneous time resolved fluorescence (HTRF) assay using hNAMPT protein and anti 6His-Tb in buffer treated with a compound of the invention (or control e.g., DMSO) and BodiPY ligand. The TR-FRET signal can be measured using a high throughput microplate reader (e.g., Pherastar). Excitation can be carried out at 320 nm. The percent inhibition value at a single concentration of compound of the invention can be calculated relative to a control treated sample. A concentration response curve can be generated for each compound of the invention and the curve fitted to generate an IC50 value. […] Cat. No. […] To this solution is added test compounds or vehicle control (DMSO) and BodiPY ligand (structure below). The plate is shaken for 1-2 min, sealed and incubated for 1 hour at rt in the dark. The TR-FRET signal is measured using BMG Pherastar (Lanthascreen protocol on BMG Pherastar). Excitation was carried out at 320 nm, and the ratio of emission of BodiPY (520 nm) to terbium (486 nm) was determined. Concentration response curves are generated by calculating the excitation increase in test compound-treated samples relative to DMSO-treated controls. For the assay method described above, test compound percent inhibition values at a single concentration are calculated relative to control (DMSO) treated samples. Compound concentration response curves are fitted to generate IC50 values from those curves. One skilled in the art will appreciate that these values generated either as percentage inhibition at a single concentration or IC50 values are subject to experimental variation.
# Sequence of hNAMPT protein (P43490 whole entry): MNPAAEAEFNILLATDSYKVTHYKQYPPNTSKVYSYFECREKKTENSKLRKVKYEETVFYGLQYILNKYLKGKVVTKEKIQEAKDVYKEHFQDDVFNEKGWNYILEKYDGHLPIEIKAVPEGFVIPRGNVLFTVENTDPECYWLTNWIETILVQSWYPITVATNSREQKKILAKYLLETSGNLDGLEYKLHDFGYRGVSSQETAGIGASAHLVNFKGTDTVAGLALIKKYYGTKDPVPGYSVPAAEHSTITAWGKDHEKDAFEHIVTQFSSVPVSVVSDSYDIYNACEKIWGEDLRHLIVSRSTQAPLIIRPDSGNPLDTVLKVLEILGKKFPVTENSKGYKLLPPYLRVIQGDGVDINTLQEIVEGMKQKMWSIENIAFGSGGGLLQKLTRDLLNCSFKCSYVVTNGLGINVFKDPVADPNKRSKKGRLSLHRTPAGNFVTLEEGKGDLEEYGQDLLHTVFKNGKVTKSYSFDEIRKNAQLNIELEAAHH
Structure (SMILES),IC50 [nM],inhibition at 1 µM [%],inhibition at 1 µM (compound concentration 1 μM) [%]
"Cc1ccc(CCCNC(=O)c2ccc3nc(N4CCOCC4)c(-c4ccc(F)cc4)nc3c2)cn1 [Compound I-21, 3-(4-Fluorophenyl)-N-[3-(6-methylpyridin-3-yl)propyl]-2-(morpholin-4-yl)quinoxaline-6-carboxamide]",500 to 1000,50,–
"O=C(c1ccc2nc(-c3ccc(F)cc3)c(-c3ccc(F)cc3)nc2c1)N1CCC(c2cnccn2)C1 (centres unmarked) [Compound I-40, [2,3-bis(4-fluorophenyl)quinoxalin-6-yl][3-(pyrazin-2-yl)pyrrolidin-1-yl]methanone]",2000 to 10000,–,33
"O=C(NCCc1ncc[nH]1)c1ccc2nc(N3CCC(N4CCOCC4)CC3)c(-c3ccccc3)nc2c1 [Compound I-71, N-[2-(1H-imidazol-2-yl)ethyl]-2-[4-(morpholin-4-yl)piperidin-1-yl]-3-phenylquinoxaline-6-carboxamide]",100 to 500,–,81
"O=C(c1ccc2nc(-c3ccc(F)cc3)c(-c3ccc(F)cc3)nc2c1)N1CCC(c2ccncc2)C1 (centres unmarked) [Compound I-98, [2,3-bis(4-fluorophenyl)quinoxalin-6-yl][3-(pyridin-4-yl)pyrrolidin-1-yl]methanone]",1000 to 2000,–,41
"O=C(c1ccc2nc(-c3ccc(F)cc3)c(-c3ccc(F)cc3)nc2c1)N1CC(c2ccccn2)C1 [Compound I-110, [2,3-bis(4-fluorophenyl)quinoxalin-6-yl][3-(pyridin-2-yl)azetidin-1-yl]methanone]",500 to 1000,–,66
"O=C(c1ccc2nc(-c3ccc(F)cc3)c(-c3ccc(F)cc3)nc2c1)N1CCc2cnccc2C1 [Compound I-160, [2,3-bis(4-fluorophenyl)quinoxalin-6-yl](3,4-dihydro-2,6-naphthyridin-2(1H)-yl)methanone]",2000 to 10000,–,45
"Cc1ccc(CCCNC(=O)c2ccc3nc(N4CCCCC4)c(-c4ccc(F)cc4)nc3c2)cn1 [Compound I-185, 3-(4-fluorophenyl)-N-[3-(6-methylpyridin-3-yl)propyl]-2-(piperidin-1-yl)quinoxaline-6-carboxamide]",500 to 1000,–,57
"O=C(c1ccc2nc(-c3ccc(F)cc3)c(-c3ccc(F)cc3)nc2c1)N1CCC(c2ccncc2)CC1 [Compound I-186, [2,3-bis(4-fluorophenyl)quinoxalin-6-yl][4-(pyridin-4-yl)piperidin-1-yl]methanone]",2000 to 10000,–,19
"O=C(c1ccc2nc(-c3ccc(F)cc3)c(-c3ccc(F)cc3)nc2c1)N1CCCC1Cc1cccnc1 (centres unmarked) [Compound I-246, [2,3-bis(4-fluorophenyl)quinoxalin-6-yl][2-(pyridin-3-ylmethyl)pyrrolidin-1-yl]methanone]",2000 to 10000,–,30
"O=C(c1ccc2nc(-c3ccc(F)cc3)c(-c3ccc(F)cc3)nc2c1)N1CC(n2cccn2)C1 [Compound I-249, [2,3-bis(4-fluorophenyl)quinoxalin-6-yl][3-(1H-pyrazol-1-yl)azetidin-1-yl]methanone]",1000 to 2000,–,45
"O=C(NCCCn1ccnc1)c1ccc2nc(-c3ccccc3Cl)c(-c3ccccc3Cl)nc2c1 [Compound I-260, 2,3-bis(2-chlorophenyl)-N-[3-(1H-imidazol-1-yl)propyl]quinoxaline-6-carboxamide]",2000 to 10000,–,19
"O=C(NCCc1c[nH]c2ccccc12)c1ccc2nc(-c3ccc(F)cc3)c(-c3ccc(F)cc3)nc2c1 [Compound I-293, 2,3-bis(4-fluorophenyl)-N-[2-(1H-indol-3-yl)ethyl]quinoxaline-6-carboxamide]",2000 to 10000,–,26
"O=C(c1ccc2nc(-c3ccc(F)cc3)c(-c3ccc(F)cc3)nc2c1)N1CCC(c2ncccn2)C1 (centres unmarked) [Compound I-294, [2,3-bis(4-fluorophenyl)quinoxalin-6-yl][3-(pyrimidin-2-yl)pyrrolidin-1-yl]methanone]",2000 to 10000,–,22
